This is an account of results in PubChem BioAssay AID248 (DTP/NCI, 2004).

This test concerns L1210 leukemia ip in BDF1 mice, survival T/C. Kind of test: NCI In Vivo Anticancer Drug Screen. Data for tumor model L1210 Leukemia (intraperitoneal) in B6D2F1 (BDF1) mice. The note with it: endpoint: mean survival time, higher = longer survival. In a few lines:
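Antitumor effect is assessed in tumor-bearing animals. Survival in the compound arm is compared with a vehicle-dosed control arm and expressed as their quotient.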

The mark [1] stands for this setting: dose: 100.0 mg/kg/injection, schedule: Q04DX002 (ip), vehicle: saline with Tween-80.
Setting [2] is: dose: 200.0 mg/kg/injection, schedule: Q04DX002 (ip), vehicle: saline with Tween-80.
[3] abbreviates: dose: 400.0 mg/kg/injection, schedule: Q04DX002 (ip), vehicle: saline with Tween-80.

Where “and” joins values, the source holds several entries; their conditions need not be identical. Equal values may be shown once. Inconclusive results and toxic doses are left out.

As to `Cc1ccc(S(=O)(=O)NC(=O)Nc2cc(Cl)c(Cl)cc2C)cc1`, the T/C runs as follows: (dose: 50.0 mg/kg/injection, schedule: Q01DX009 (ip), vehicle: saline) 100 % of control and 108 % of control; (dose: 100.0 mg/kg/injection, schedule: Q01DX009 (ip), vehicle: saline with Tween-80) 94 % of control and 91 % of control; (dose: 100.0 mg/kg/injection, schedule: Q01DX009 (ip), vehicle: saline) 97 % of control and 88 % of control; under setting [1], 100 % of control and 110 % of control; (dose: 200.0 mg/kg/injection, schedule: Q01DX009 (ip), vehicle: saline with Tween-80) 93 % of control; (dose: 200.0 mg/kg/injection, schedule: Q01DX009 (ip), vehicle: saline) 94 % of control and 86 % of control. The T/C is 93 % of control and 96 % of control under setting [2]; 93 % of control (dose: 400.0 mg/kg/injection, schedule: Q01DX009 (ip), vehicle: saline); 100 % of control and 104 % of control under setting [3].

Take `COCCNCC1OC(OC)C2OC(C)(C)OC12` (configuration not stated): the T/C is 104 % of control (dose: 100.0 mg/kg/injection, schedule: Q01DX005 (ip), vehicle: saline) and 102 % of control (dose: 200.0 mg/kg/injection, schedule: Q01DX005 (ip), vehicle: saline).

In the case of `CC(C)=CCC/C(C)=C/COC(N)=O`, the T/C is 100 % of control and 101 % of control under setting [1]; 100 % of control and 99 % of control under setting [2].

With `c1ccc([P+](c2ccccc2)(c2ccccc2)c2ccccc2)cc1`, the T/C (dose: 2.5 mg/kg/injection, schedule: Q01DX009 (ip), vehicle: saline) was 110 % of control; the T/C (dose: 2.5 mg/kg/injection, schedule: Q04DX003 (ip), vehicle: saline) is 103 % of control; the T/C (dose: 5.0 mg/kg/injection, schedule: Q01DX001 (ip), vehicle: saline) is 110 % of control; the T/C (dose: 5.0 mg/kg/injection, schedule: Q01DX009 (ip), vehicle: saline) was 114 % of control; the T/C (dose: 5.0 mg/kg/injection, schedule: Q04DX003 (ip), vehicle: saline) was 106 % of control; the T/C (dose: 10.0 mg/kg/injection, schedule: Q01DX001 (ip), vehicle: saline) was 94 % of control. For the same compound, the T/C (dose: 10.0 mg/kg/injection, schedule: Q04DX003 (ip), vehicle: saline) was 109 % of control.

`CN(C)c1ccc(/C=C/C(=O)Cc2ccccc2)cc1`: the T/C (dose: 1.56 mg/kg/injection, schedule: Q04DX002 (ip), vehicle: saline with Tween-80) was 109 % of control; the T/C (dose: 3.13 mg/kg/injection, schedule: Q04DX002 (ip), vehicle: saline with Tween-80) is 103 % of control; the T/C (dose: 6.25 mg/kg/injection, schedule: Q04DX002 (ip), vehicle: saline with Tween-80) is 98 % of control; the T/C (dose: 12.5 mg/kg/injection, schedule: Q04DX002 (ip), vehicle: saline with Tween-80) is 95 % of control and 98 % of control; the T/C (dose: 50.0 mg/kg/injection, schedule: Q04DX002 (ip), vehicle: saline with Tween-80) was 104 % of control; the T/C under setting [1] is 88 % of control.

`CCn1cnc2c(=S)nc[nH]c21`: the T/C was 98 % of control (dose: 4.62 mg/kg/injection, schedule: Q01DX Z (ip), vehicle: carboxymethylcellulose (CMC)); 106 % of control (dose: 7.5 mg/kg/injection, schedule: Q01DX005 (ip), vehicle: other); 102 % of control (dose: 7.5 mg/kg/injection, schedule: Q01DX009 (ip), vehicle: other); 124 % of control (dose: 7.5 mg/kg/injection, schedule: Q01DX009 (sc), vehicle: other); 108 % of control (dose: 9.25 mg/kg/injection, schedule: Q01DX Z (ip), vehicle: carboxymethylcellulose (CMC)); 110 % of control (dose: 9.25 mg/kg/injection, schedule: Q01DX Z (oral), vehicle: carboxymethylcellulose (CMC)). The T/C is 102 % of control (dose: 15.0 mg/kg/injection, schedule: Q01DX005 (ip), vehicle: other); 107 % of control (dose: 15.0 mg/kg/injection, schedule: Q01DX009 (ip), vehicle: other); 115 % of control (dose: 15.0 mg/kg/injection, schedule: Q01DX009 (oral), vehicle: other); 103 % of control (dose: 15.0 mg/kg/injection, schedule: Q01DX009 (sc), vehicle: other); 108 % of control (dose: 18.5 mg/kg/injection, schedule: Q01DX Z (ip), vehicle: carboxymethylcellulose (CMC)); 110 % of control (dose: 18.5 mg/kg/injection, schedule: Q01DX Z (oral), vehicle: carboxymethylcellulose (CMC)). Moreover, the T/C runs as follows: (dose: 30.0 mg/kg/injection, schedule: Q01DX005 (ip), vehicle: other) 116 % of control; (dose: 30.0 mg/kg/injection, schedule: Q01DX009 (ip), vehicle: other) 117 % of control; (dose: 30.0 mg/kg/injection, schedule: Q01DX009 (oral), vehicle: other) 115 % of control; (dose: 30.0 mg/kg/injection, schedule: Q01DX009 (sc), vehicle: other) 119 % of control; (dose: 30.0 mg/kg/injection, schedule: Q## X024 (ip), vehicle: other) 102 % of control; (dose: 31.3 mg/kg/injection, schedule: Q01DX009 (ip), vehicle: saline) 100 % of control and 104 % of control. Moreover, the T/C is 92 % of control and 95 % of control (dose: 31.3 mg/kg/injection, schedule: Q01DX010 (ip), vehicle: saline); 112 % of control (dose: 37.0 mg/kg/injection, schedule: Q01DX Z (ip), vehicle: carboxymethylcellulose (CMC)); 120 % of control (dose: 37.0 mg/kg/injection, schedule: Q01DX Z (oral), vehicle: carboxymethylcellulose (CMC)); 100 % of control (dose: 37.5 mg/kg/injection, schedule: Q## X003 (ip), vehicle: other); 123 % of control (dose: 60.0 mg/kg/injection, schedule: Q01DX005 (ip), vehicle: other); 107 % of control (dose: 60.0 mg/kg/injection, schedule: Q## X008 (ip), vehicle: other). In addition, the T/C was 109 % of control (dose: 60.0 mg/kg/injection, schedule: Q## X016 (ip), vehicle: other); 114 % of control (dose: 60.0 mg/kg/injection, schedule: Q## X024 (ip), vehicle: other); 106 % of control and 112 % of control (dose: 62.5 mg/kg/injection, schedule: Q01DX009 (ip), vehicle: saline); 107 % of control and 108 % of control (dose: 62.5 mg/kg/injection, schedule: Q01DX010 (ip), vehicle: saline); 102 % of control (dose: 75.0 mg/kg/injection, schedule: Q01DX001 (ip), vehicle: other); 113 % of control (dose: 75.0 mg/kg/injection, schedule: Q01DX001 (sc), vehicle: other). Also, the T/C by setting is: (dose: 75.0 mg/kg/injection, schedule: Q## X002 (ip), vehicle: other) 98 % of control; (dose: 75.0 mg/kg/injection, schedule: Q## X003 (ip), vehicle: other) 100 % of control; (dose: 120.0 mg/kg/injection, schedule: Q01DX009 (oral), vehicle: other) 151 % of control; (dose: 120.0 mg/kg/injection, schedule: Q## X008 (ip), vehicle: other) 117 % of control; (dose: 125.0 mg/kg/injection, schedule: Q01DX010 (ip), vehicle: saline) 122 % of control; (dose: 150.0 mg/kg/injection, schedule: Q01DX001 (ip), vehicle: other) 108 % of control. For the same compound, the T/C by setting is: (dose: 150.0 mg/kg/injection, schedule: Q01DX001 (oral), vehicle: other) 117 % of control; (dose: 150.0 mg/kg/injection, schedule: Q01DX001 (sc), vehicle: other) 117 % of control; (dose: 150.0 mg/kg/injection, schedule: Q## X002 (ip), vehicle: other) 101 % of control; (dose: 240.0 mg/kg/injection, schedule: Q## X016 (ip), vehicle: other) 152 % of control; (dose: 240.0 mg/kg/injection, schedule: Q## X024 (ip), vehicle: other) 165 % of control; (dose: 250.0 mg/kg/injection, schedule: Q01DX009 (ip), vehicle: saline) 110 % of control and 124 % of control. Besides, the T/C by setting is: (dose: 300.0 mg/kg/injection, schedule: Q01DX001 (oral), vehicle: other) 119 % of control; (dose: 300.0 mg/kg/injection, schedule: Q## X003 (ip), vehicle: other) 162 % of control; (dose: 480.0 mg/kg/injection, schedule: Q## X008 (ip), vehicle: other) 157 % of control; (dose: 480.0 mg/kg/injection, schedule: Q## X016 (ip), vehicle: other) 153 % of control; (dose: 600.0 mg/kg/injection, schedule: Q01DX001 (oral), vehicle: other) 123 % of control; (dose: 600.0 mg/kg/injection, schedule: Q01DX001 (sc), vehicle: other) 121 % of control.

For `NC(=O)COc1ccc(F)cc1F`, the T/C under setting [1] was 101 % of control, the T/C under setting [2] is 97 % of control and the T/C under setting [3] is 93 % of control.
